Common to all, as to assay type: functional
Assay [1] has as its target T1, Seed linoleate 13S-lipoxygenase-1 (Glycine max) (UniProt P08170).
T1 sequence (whole entry): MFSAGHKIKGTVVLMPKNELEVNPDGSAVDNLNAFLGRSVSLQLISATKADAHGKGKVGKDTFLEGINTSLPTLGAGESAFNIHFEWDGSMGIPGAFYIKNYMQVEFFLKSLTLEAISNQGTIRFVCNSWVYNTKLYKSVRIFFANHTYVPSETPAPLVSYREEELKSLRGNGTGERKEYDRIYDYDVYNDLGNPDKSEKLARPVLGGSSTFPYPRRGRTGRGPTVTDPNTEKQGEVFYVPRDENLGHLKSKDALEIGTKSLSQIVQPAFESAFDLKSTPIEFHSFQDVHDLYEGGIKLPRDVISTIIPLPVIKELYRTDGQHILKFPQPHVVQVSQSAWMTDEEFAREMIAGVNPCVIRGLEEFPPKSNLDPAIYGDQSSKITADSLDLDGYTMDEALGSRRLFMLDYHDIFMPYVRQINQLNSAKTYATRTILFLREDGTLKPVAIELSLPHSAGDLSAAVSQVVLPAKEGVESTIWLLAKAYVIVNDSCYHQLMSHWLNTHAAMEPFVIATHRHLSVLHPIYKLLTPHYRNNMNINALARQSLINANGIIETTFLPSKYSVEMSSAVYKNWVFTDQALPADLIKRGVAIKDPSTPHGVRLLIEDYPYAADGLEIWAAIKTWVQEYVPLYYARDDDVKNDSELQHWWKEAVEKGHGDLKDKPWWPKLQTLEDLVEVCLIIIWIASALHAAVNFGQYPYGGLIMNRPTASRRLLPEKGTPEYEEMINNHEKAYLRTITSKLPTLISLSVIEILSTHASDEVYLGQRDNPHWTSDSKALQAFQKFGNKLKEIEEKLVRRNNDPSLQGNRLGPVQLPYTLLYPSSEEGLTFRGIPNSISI
Put plainly: Compound was evaluated for in vitro inhibition of soybean lipoxygenase at 0.1 mM concentration.

For assay [2], the target named is Serine protease 1 (Homo sapiens) (UniProt P07477). As to the kind of experiment: Compound was evaluated for in vitro inhibition of trypsin acting as esterase at 0.1 mM concentration.
The nature of assay [3]: Interaction percent with DPPH after 60 minutes was determined at 0.2 mM concentration. For orientation: DPPH is a stable violet radical that fades when it is reduced.
Assay [4] has as its target Serine protease 1 (Homo sapiens) (UniProt P07477). Put plainly: Compound was evaluated for in vitro inhibition of trypsin acting as esterase at 1 mM concentration.
In assay [5] the target is Chymotrypsinogen B (Homo sapiens) (UniProt P17538). Put plainly: Compound was evaluated for in vitro inhibition of chymotrypsinogen acting as esterase at 0.1 mM concentration.
Assay [6] can be described thus: Competition percent of compound with DMSO for hydroxyl radical was determined at 0.1 mM concentration; No result.
Assay [7] in a line: Compound was evaluated for percent inhibition of carrageenan induced rat paw edema at 0.005 mmol/kg. For orientation: In the carrageenan paw model, swelling and tenderness develop within hours.
Assay [8] addresses Serine protease 1 (Homo sapiens) (UniProt P07477). Put plainly: Compound was evaluated for in vitro inhibition of trypsin induced proteolysis at 0.1 mM concentration; no action.
A short description of assay [9]: Interaction percent with DPPH after 60 minutes was determined at 0.1 mM concentration.
Assay [10] in a line: Interaction percent with DPPH after 20 minutes was determined at 0.2 mM concentration.
For assay [11], the target named is T1, Seed linoleate 13S-lipoxygenase-1 (Glycine max). Put plainly: Compound was evaluated for in vitro inhibition of soybean lipoxygenase at 1 mM concentration.
The target in assay [12] is T2, Beta-glucuronidase (Bos taurus) (UniProt A3KMY8).
T2 sequence (whole entry): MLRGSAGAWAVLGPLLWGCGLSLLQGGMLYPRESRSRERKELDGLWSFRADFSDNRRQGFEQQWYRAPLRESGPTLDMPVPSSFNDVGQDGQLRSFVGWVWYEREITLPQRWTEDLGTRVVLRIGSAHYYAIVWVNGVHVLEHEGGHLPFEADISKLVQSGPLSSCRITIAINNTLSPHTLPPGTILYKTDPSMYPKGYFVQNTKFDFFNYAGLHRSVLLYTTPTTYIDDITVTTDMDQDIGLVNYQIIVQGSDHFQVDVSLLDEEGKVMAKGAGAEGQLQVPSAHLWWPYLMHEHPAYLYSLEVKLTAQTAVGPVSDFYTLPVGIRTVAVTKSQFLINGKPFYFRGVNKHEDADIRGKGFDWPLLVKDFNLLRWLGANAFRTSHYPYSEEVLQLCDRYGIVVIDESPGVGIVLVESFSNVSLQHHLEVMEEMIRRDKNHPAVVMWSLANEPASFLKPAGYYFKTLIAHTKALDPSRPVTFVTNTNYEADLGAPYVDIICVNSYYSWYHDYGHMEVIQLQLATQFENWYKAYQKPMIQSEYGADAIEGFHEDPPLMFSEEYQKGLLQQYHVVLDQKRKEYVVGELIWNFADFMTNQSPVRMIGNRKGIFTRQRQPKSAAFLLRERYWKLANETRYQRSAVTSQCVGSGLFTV
Put plainly: Compound was evaluated for in vitro inhibition of beta-glucuronidase at 0.1 mM concentration.

The nature of assay [13]: Interaction percent with DPPH after 20 minutes was determined at 0.1 mM concentration.
Assay [14] has as its target Serine protease 1 (Homo sapiens) (UniProt P07477). Put plainly: Compound was evaluated for in vitro inhibition of trypsin induced proteolysis at 1 mM concentration.
Assay [15] in a line: Competition percent of compound with DMSO for hydroxyl radical was determined at 0.01 mM concentration.
The target in assay [16] is T2, Beta-glucuronidase (Bos taurus). As to the kind of experiment: Compound was evaluated for in vitro inhibition of beta-glucuronidase at 1 mM concentration.
In assay [17] the target is Chymotrypsinogen B (Homo sapiens) (UniProt P17538). As to the kind of experiment: Compound was evaluated for in vitro inhibition of chymotrypsinogen induced proteolysis at 0.1 mM concentration; no action.
Assay [18] in a line: Interaction percent with DPPH after 60 minutes was determined at 0.5 mM concentration.
The nature of assay [19]: Interaction percent with DPPH after 20 minutes was determined at 0.5 mM concentration.
Assay [20] addresses Chymotrypsinogen B (Homo sapiens) (UniProt P17538). Put plainly: Compound was evaluated for in vitro inhibition of chymotrypsinogen induced proteolysis at 1 mM concentration.
For assay [21] the target is unchanged. As to the kind of experiment: Compound was evaluated for in vitro inhibition of chymotrypsinogen acting as esterase at 1 mM concentration.
Assay [22] can be described thus: Competition percent of compound with DMSO for hydroxyl radical was determined at 0.1 mM concentration.
For assay [23], the target named is T1, Seed linoleate 13S-lipoxygenase-1 (Glycine max). As to the kind of experiment: Compound was evaluated for in vitro inhibition of soybean lipoxygenase at 1 mM concentration; no action.
The target of assay [24] is Chymotrypsinogen B (Homo sapiens) (UniProt P17538). As to the kind of experiment: Compound was evaluated for in vitro inhibition of chymotrypsinogen induced proteolysis at 0.1 mM concentration.
Assay [25] has as its target Serine protease 1 (Homo sapiens) (UniProt P07477). As to the kind of experiment: Compound was evaluated for in vitro inhibition of trypsin induced proteolysis at 0.1 mM concentration.
In assay [26] the target is T1, Seed linoleate 13S-lipoxygenase-1 (Glycine max). As to the kind of experiment: Compound was evaluated for in vitro inhibition of soybean lipoxygenase at 0.1 mM concentration; no action.

Sequence of Serine protease 1 (Homo sapiens) (P07477 whole entry): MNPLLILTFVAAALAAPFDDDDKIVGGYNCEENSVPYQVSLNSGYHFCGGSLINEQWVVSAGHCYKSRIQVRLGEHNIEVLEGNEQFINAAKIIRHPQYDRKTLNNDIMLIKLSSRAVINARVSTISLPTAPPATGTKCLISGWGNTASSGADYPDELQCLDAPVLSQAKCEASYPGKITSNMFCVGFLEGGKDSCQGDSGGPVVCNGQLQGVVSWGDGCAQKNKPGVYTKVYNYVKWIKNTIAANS
Sequence of Chymotrypsinogen B (Homo sapiens) (P17538 34-164 limits assumed, other chains not shown): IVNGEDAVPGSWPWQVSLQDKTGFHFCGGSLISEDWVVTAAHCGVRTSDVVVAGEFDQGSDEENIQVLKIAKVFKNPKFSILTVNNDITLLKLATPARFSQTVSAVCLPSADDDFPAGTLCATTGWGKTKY
Sequence of Chymotrypsinogen B (Homo sapiens) (P17538 167-263 limits assumed, other chains not shown): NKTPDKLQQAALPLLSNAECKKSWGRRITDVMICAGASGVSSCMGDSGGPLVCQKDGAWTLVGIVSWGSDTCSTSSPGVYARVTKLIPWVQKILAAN

On to `CN/N=C/c1ccc2ccc(=O)oc2c1`, for which the inhibition is 70.8% in assay [1]; 22.6% in [2]; 97.6% in [4]; 10% in [5]; “No action” in assay [8]; 100% in assay [11]. For the same compound, the inhibition in assay [12] is 6.9%; in [14], 100%; in [16], 93.3%; in assay [17], “No action”; in assay [20], 93.9%; in assay [21] it was 83.4%. In addition, the RA in [3] was 86.7%; in [9], 80.7%; in [10], 84.8%; in assay [13] it was 69.7%; in assay [18], 87.3%; in assay [19] it was 92.4%. Moreover, the Competition result is “No results” in assay [6] and 97.3% in [15]. Further, in [7], the inhibition in vivo at 5 µmol/kg turned out to be 54.7%.

Turning to `O=c1ccc2ccc(/C=N/Nc3ccccc3)cc2o1`, the inhibition was 77.4% in assay [1]; 31.4% in assay [2]; 99.9% in assay [4]; 30.6% in [5]; “No action” in [8]; 71.2% in assay [11]. Besides, the inhibition in assay [12] is 5.9%; in [14], 64.5%; in assay [16], 96.8%; in assay [17], “No action”; in [20], 80.1%; in assay [21], 88.7%. For the same compound, the RA in assay [3] is 64.4%; in [9] it was 56.2%; in assay [10], 48.9%; in [13], 36.2%; in assay [18], 79.1%; in [19], 78.7%. Besides, the inhibition in vivo at 5 µmol/kg in [7] is 35.2%. The Competition was 15.4% in [15] and 65.5% in assay [22].

Consider `CC(=O)CC(c1ccccc1)c1c(O)c2ccccc2oc1=O` (stereo not drawn) [WARFARIN], for which the inhibition in [2] is 21.2%; in assay [4], 97.5%; in assay [5] it was 18.4%; in assay [23], “No action”; in assay [14], 94.8%; in [24], 62.4%. Besides, the inhibition is 92.5% in assay [25], 86.7% in assay [20] and 98.2% in assay [21]. Also, in [7], the inhibition in vivo at 5 µmol/kg came out at 41%. The RA was found to be 24% in [9], 9.2% in assay [13], 12.8% in [18] and 10.3% in assay [19]. This compound also gave a Competition in [22] of 95.8%.

As for `CO/N=C/c1ccc2ccc(=O)oc2c1`, the inhibition is 25.5% in assay [2]; 99.9% in assay [4]; 16.6% in [5]; “No action” in assay [26]; 100% in assay [11]; 21.9% in assay [12]. In addition, the inhibition in assay [14] is 100%; in [16], 94.1%; in assay [17], “No action”; in assay [25] it was 100%; in assay [20], 56.9%; in [21] it was 100%. Further, the RA in [3] is 11.6%; in assay [9], 9.8%; in assay [10], 14.5%; in assay [13] it was 12.7%; in assay [18], 11.9%; in assay [19] it was 13.9%. In addition, in assay [7], the inhibition in vivo at 5 µmol/kg amounted to 31.1%. Moreover, the Competition in assay [15] is 85.6%; in assay [22], 90.2%.

In general, inhibition refers to how much of the control response was suppressed. What is called inhibition in vivo is the share of the control response that was lost under treatment. Higher therefore signals a response far below the control.
